Experimental data as given in PMC4937820, “Identification of selective inhibitors of RET and comparison with current clinical candidates through development and validation of a robust screening cascade” (F1000Research, 2016).

Columns and labels:
[1] = system: MZ-CRC-1 (RET (M918T)) versus HEK293 cells; experiment: Cell POP (proof of principle) proliferation assay, MZ-CRC-1 vs HEK293 control; type: cell-based, human; conditions: IC50 HEK293 control cells divided by IC50 MZ-CRC-1 cells
RET-positive patients = conditions: preliminary report of phase II trial; cited from earlier work
RET [2] = conditions: MZ-CRC-1 cells; confirmed in-house (data not shown); read-out: IC 50 in MZ-CRC-1 cells (RET); cited from earlier work
RET [3] = target: RET (Homo sapiens, UniProt P07949, M918T); experiment: RET cellular POM (proof of mechanism) assay; type: cell-based
RET [4] = experiment: Western blot of pRET, total RET and GAPDH in MZ-CRC-1 cells; type: cell-based; conditions: 1µM, 24 hours
Experimental: Following compound treatment (1µM, 24 hours), MZ-CRC-1 cell lysates (50 μg) were subjected to polyacrylamide gel electrophoresis (PAGE) and semi-dry transfer to nitrocellulose membrane using the Bio-Rad Trans-Blot Turbo system and Trans-Blot Turbo transfer packs. Membranes were blocked overnight at 4°C in phosphate-buffered saline containing 0.1% Tween (PBST; Sigma) and 5% non-fat dried milk powder (marvel). Primary and secondary antibody incubations were performed at room temperature in PBST/0.5% marvel with 3× PBST washes post incubation. pRET (Santa Cruz #SC-20252-R) and total RET (Santa Cruz #sc-167) antibodies were used at 1:500 dilutions; GAPDH (Cell Signaling Technology #2118L) and secondary goat anti rabbit IgG HRP-linked (Cell Signaling Technology #7074) antibodies were used at 1:1000. Proteins were visualized by chemiluminescent detection of peroxidase activity using SuperSignal reagent (Pierce), and images were captured using the Syngene imager and GeneSys software.

RET (Homo sapiens, UniProt P07949, M918T), sequence (P07949 29-1114 M918T): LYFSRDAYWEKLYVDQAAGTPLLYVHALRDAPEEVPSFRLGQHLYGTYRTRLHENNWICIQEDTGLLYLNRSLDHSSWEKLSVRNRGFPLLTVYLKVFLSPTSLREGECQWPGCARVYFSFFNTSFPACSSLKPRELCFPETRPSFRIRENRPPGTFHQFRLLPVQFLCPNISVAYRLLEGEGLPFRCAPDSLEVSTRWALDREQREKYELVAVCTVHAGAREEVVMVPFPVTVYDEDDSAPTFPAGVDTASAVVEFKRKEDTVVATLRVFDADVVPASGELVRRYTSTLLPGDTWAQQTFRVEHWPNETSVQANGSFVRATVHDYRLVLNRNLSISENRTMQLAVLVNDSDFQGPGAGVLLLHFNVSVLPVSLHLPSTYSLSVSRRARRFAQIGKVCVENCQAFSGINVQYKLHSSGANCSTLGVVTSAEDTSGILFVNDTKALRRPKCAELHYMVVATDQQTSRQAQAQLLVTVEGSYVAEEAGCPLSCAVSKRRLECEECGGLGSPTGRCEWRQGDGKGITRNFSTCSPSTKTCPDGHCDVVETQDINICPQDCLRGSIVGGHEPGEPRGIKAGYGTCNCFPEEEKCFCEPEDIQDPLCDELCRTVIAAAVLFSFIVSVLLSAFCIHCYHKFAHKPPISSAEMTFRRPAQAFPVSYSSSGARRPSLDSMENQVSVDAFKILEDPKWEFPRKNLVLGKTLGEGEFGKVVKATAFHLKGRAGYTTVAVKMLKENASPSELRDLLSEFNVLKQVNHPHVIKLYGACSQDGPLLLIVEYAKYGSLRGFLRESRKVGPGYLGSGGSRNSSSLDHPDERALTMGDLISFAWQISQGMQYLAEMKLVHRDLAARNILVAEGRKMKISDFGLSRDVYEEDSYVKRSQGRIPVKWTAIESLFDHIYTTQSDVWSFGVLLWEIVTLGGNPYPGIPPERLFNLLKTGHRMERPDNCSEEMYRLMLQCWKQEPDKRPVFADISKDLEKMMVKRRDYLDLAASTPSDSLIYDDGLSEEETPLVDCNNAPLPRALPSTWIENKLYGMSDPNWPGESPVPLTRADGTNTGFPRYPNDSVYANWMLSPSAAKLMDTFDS

| Structure (SMILES) | Toxicity Margin [1] | other results |
| --- | --- | --- |
| CCN(CC)CCNC(=O)c1c(C)[nH]c(/C=C2\C(=O)Nc3ccc(F)cc32)c1C [Sunitinib] | 28× |  |
| COc1cc2nccc(Oc3ccc(NC(=O)C4(C(=O)Nc5ccc(F)cc5)CC4)cc3)c2cc1OC [Cabozantinib] |  | Clinical response (RET-positive patients): partial responses in two of three RET-positive patients |
| CCc1cc2c(cc1N1CCC(N3CCOCC3)CC1)C(C)(C)c1[nH]c3cc(C#N)ccc3c1C2=O [Alectinib] | ^1>35× | IC50 (RET [2]): […] |
| CNC(=O)c1cc(Oc2ccc(NC(=O)Nc3ccc(Cl)c(C(F)(F)F)c3)cc2)ccn1 [Sorafenib] | 13× |  |
| CC(C)c1cc(-c2n[nH]c(=O)n2-c2ccc3c(ccn3C)c2)c(O)cc1O [Ganetespib] | 0.7× | Selectivity vs. KDR (cell) (RET [3]; cellular, KDR IC50 divided by RET IC50): 0.36×; IC50 (RET [3]; geometric mean of at least four independent measurements, read-out: RET Cell IC 50): 3.9 nM; Effect on levels of active RET (RET [4]): reduce levels of active RET, through protein degradation |
| COc1cc2nccc(Oc3ccc(NC(=O)NC4CC4)c(Cl)c3)c2cc1C(N)=O [Lenvatinib] | 141× |  |
